Laboratory results published in US20240261367A1, “CYCLIC PEPTIDE IMMUNOMODULATORS” (priority 2021, published 2024).
pIC50: −log10 of the molar value.

Molecular target: T1, PD-1/PD-L1 (Homo sapiens, UniProt Q9NZQ7)
T1 construct: TVMV protease site linker (C); made in house; host or cells: HEK293T cells
Test: PD-1/PD-L1 Homogenous Time-Resolved Fluorescence (HTRF) binding assay
Conditions: PD-L1-His (10 nM) pre-incubated with inhibitor 15 m, then PD-1-Ig (20 nM)
From the text: Methods for Testing the Ability of Macrocyclic Peptides to Compete for the Binding of PD-1 to PD-L1 Using Homogenous Time-Resolved Fluorescence (HTRF) Binding Assays
The ability of the compounds of formula (I) to bind to PD-L1 was investigated using a PD-1/PD-L1 Homogenous Time-Resolved Fluorescence (HTRF) binding assay.
Homogenous Time-Resolved Fluorescence (HTRF) Binding Assay
The interaction of PD-1 and PD-L1 can be assessed using soluble, purified preparations of the extracellular domains of the two proteins. The PD-1 and PD-L1 protein extracellular domains were expressed as fusion proteins with detection tags, for PD-1, the tag was the Fc portion of Immunoglobulin (PD-1-Ig) and for PD-L1 it was the 6 histidine motif (PD-L1-His). All binding studies were performed in an HTRF assay buffer consisting of dPBS supplemented with 0.1% […] bovine serum albumin and 0.05% (v/v) Tween-20. […] HTRF detection was achieved using europium crypate-labeled anti-Ig (1 nM final) and allophycocyanin (APC) labeled anti-His (20 nM final). Antibodies were diluted in HTRF detection buffer and 5 μl was dispensed on top of the binding reaction. The reaction mixture was allowed to equilibrate for 30 minutes and the resulting signal (665 nm/620 nm ratio) was obtained using an EnVision fluorometer. Additional binding assays were established between the human proteins PD-1-Ig/PD-L2-His (20 & 5 nM, respectively) and CD80-His/PD-L1-Ig (100 & 10 nM, respectively).
Recombinant Proteins: Human PD-1 (25-167) with a C-terminal human Fc domain of immunoglobulin G (Ig) epitope tag [hPD-1 (25-167)-3S-IG] and human PD-L1 (18-239) with a C-terminal His epitope tag [hPD-L1(18-239)-TVMV-His] were expressed in HEK293T cells and purified sequentially by ProteinA affinity chromatography and size exclusion chromatography. Human PD-L2-His and CD80-His was obtained through commercial sources.
Table 1 lists the IC50 values for representative examples of this disclosure measured in the PD-1/PD-L1 Homogenous Time-Resolved Fluorescence (HTRF) binding assay.

T1 sequence (Q9NZQ7 18-239): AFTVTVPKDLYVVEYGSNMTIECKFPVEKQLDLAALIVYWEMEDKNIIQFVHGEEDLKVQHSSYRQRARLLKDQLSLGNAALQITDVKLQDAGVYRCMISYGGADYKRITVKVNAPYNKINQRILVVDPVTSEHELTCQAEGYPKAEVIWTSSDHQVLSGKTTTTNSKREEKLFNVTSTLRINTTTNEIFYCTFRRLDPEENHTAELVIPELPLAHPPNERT

SMILES | pIC50
CCCC[C@H]1C(=O)N(C)[C@@H](CCCC)C(=O)N[C@@H](CC(C)C)C(=O)N[C@H](C(=O)NCC(=O)N[C@@H](Cc2cn(CCOCCOCCOCCOCCOCCOCCOCCOCCOCCOCCOCCNC(=O)CC[C@H](NC(=O)CCCCCCCCCCCCCCCCC(=O)O)C(=O)O)nn2)C(=O)OC)CSCC(=O)N[C@@H](Cc2ccc(O)cc2)C(=O)N(C)[C@@H](C)C(=O)N[C@@H](CC(N)=O)C(=O)N2CCC[C@H]2C(=O)N[C@@H](CN)C(=O)N[C@@H](CC(C)C)C(=O)N2C[C@H](O)C[C@H]2C(=O)N[C@@H](Cc2c[nH]c3ccccc23)C(=O)N[C@@H](CCN)C(=O)N[C@@H](Cc2cn(CC(=O)OC)c3ccccc23)C(=O)N1C [Example 3002] | 7.92
CCCC[C@H]1C(=O)N(C)[C@@H](CCCC)C(=O)N[C@@H](CC(C)C)C(=O)N[C@H](C(=O)NCC(=O)N[C@@H](Cc2cn(CCOCCOCCOCCOCCOCCOCCOCCOCCOCCOCCOCCNC(=O)CC[C@H](NC(=O)CCCCCCCCCCCCCCCCC(=O)O)C(=O)OC)nn2)C(=O)OC)CSCC(=O)N[C@@H](Cc2ccc(O)cc2)C(=O)N(C)[C@@H](C)C(=O)N[C@@H](CC(N)=O)C(=O)N2CCC[C@H]2C(=O)N[C@@H](CN)C(=O)N[C@@H](CC(C)C)C(=O)N2C[C@H](O)C[C@H]2C(=O)N[C@@H](Cc2c[nH]c3ccccc23)C(=O)N[C@@H](CCN)C(=O)N[C@@H](Cc2cn(CC(=O)OC)c3ccccc23)C(=O)N1C [Example 3004] | 7.68
CCCC[C@H]1C(=O)N(C)[C@@H](CCCC)C(=O)N[C@@H](CC(C)C)C(=O)N[C@H](C(=O)NCC(=O)N[C@@H](Cc2cn(CCOCCOCCOCCOCCOCCOCCOCCOCCOCCOCCOCCNC(=O)CC[C@H](NC(=O)CCCCCCCCCCCCCCCCC(=O)O)C(=O)O)nn2)C(=O)O)CSCC(=O)N[C@@H](Cc2ccc(O)cc2)C(=O)N(C)[C@@H](C)C(=O)N[C@@H](CC(N)=O)C(=O)N2CCC[C@H]2C(=O)N[C@@H](CN)C(=O)N[C@@H](CC(C)C)C(=O)N2C[C@H](O)C[C@H]2C(=O)N[C@@H](Cc2c[nH]c3ccccc23)C(=O)N[C@@H](CCNC(=O)OC)C(=O)N[C@@H](Cc2cn(CC(=O)O)c3ccccc23)C(=O)N1C [Example 5001] | 9.24
CCCC[C@H]1C(=O)N(C)[C@@H](CCCC)C(=O)N[C@@H](CC(C)C)C(=O)N[C@H](C(=O)NCC(=O)N[C@@H](Cc2cn(CCOCCOCCOCCOCCOCCOCCOCCOCCOCCOCCOCCNC(=O)CC[C@H](NC(=O)CCCCCCCCCCCCCCCCC(=O)OC)C(=O)O)nn2)C(=O)O)CSCC(=O)N[C@@H](Cc2ccc(O)cc2)C(=O)N(C)[C@@H](C)C(=O)N[C@@H](CC(N)=O)C(=O)N2CCC[C@H]2C(=O)N[C@@H](CNC(=O)OCc2oc(=O)oc2C)C(=O)N[C@@H](CC(C)C)C(=O)N2C[C@H](O)C[C@H]2C(=O)N[C@@H](Cc2c[nH]c3ccccc23)C(=O)N[C@@H](CCN)C(=O)N[C@@H](Cc2cn(CC(=O)O)c3ccccc23)C(=O)N1C [Example 7003] | 8.13
CCCC[C@H]1C(=O)N(C)[C@@H](CCCC)C(=O)N[C@@H](CC(C)C)C(=O)N[C@H](C(=O)NCC(=O)N[C@@H](Cc2cn(CCOCCOCCOCCOCCOCCOCCOCCOCCOCCOCCOCCNC(=O)CC[C@H](NC(=O)CCCCCCCCCCCCCCCCC(=O)OC)C(=O)OC)nn2)C(=O)O)CSCC(=O)N[C@@H](Cc2ccc(O)cc2)C(=O)N(C)[C@@H](C)C(=O)N[C@@H](CC(N)=O)C(=O)N2CCC[C@H]2C(=O)N[C@@H](CNC(=O)OCc2oc(=O)oc2C)C(=O)N[C@@H](CC(C)C)C(=O)N2C[C@H](O)C[C@H]2C(=O)N[C@@H](Cc2c[nH]c3ccccc23)C(=O)N[C@@H](CCN)C(=O)N[C@@H](Cc2cn(CC(=O)O)c3ccccc23)C(=O)N1C [Example 7004] | 8.16

Further compounds by rising pIC50, results first:

pIC50 | SMILES
7.28 | CCCC[C@H]1C(=O)N(C)[C@@H](CCCC)C(=O)N[C@@H](CC(C)C)C(=O)N[C@H](C(=O)NCC(=O)N[C@@H](Cc2cn(CCOCCOCCOCCOCCOCCOCCOCCOCCOCCOCCOCCNC(=O)CC[C@H](NC(=O)CCCCCCCCCCCCCCCCC(=O)OC)C(=O)O)nn2)C(=O)O)CSCC(=O)N[C@@H](Cc2ccc(O)cc2)C(=O)N(C)[C@@H](C)C(=O)N[C@@H](CC(N)=O)C(=O)N2CCC[C@H]2C(=O)N[C@@H](CNC(=O)OCC)C(=O)N[C@@H](CC(C)C)C(=O)N2C[C@H](O)C[C@H]2C(=O)N[C@@H](Cc2c[nH]c3ccccc23)C(=O)N[C@@H](CCN)C(=O)N[C@@H](Cc2cn(CC(=O)O)c3ccccc23)C(=O)N1C [Example 7001]
7.34 | CCCC[C@H]1C(=O)N(C)[C@@H](CCCC)C(=O)N[C@@H](CC(C)C)C(=O)N[C@H](C(=O)NCC(=O)N[C@@H](Cc2cn(CCOCCOCCOCCOCCOCCOCCOCCOCCOCCOCCOCCNC(=O)CC[C@H](NC(=O)CCCCCCCCCCCCCCCCC(=O)O)C(=O)O)nn2)C(=O)O)CSCC(=O)N[C@@H](Cc2ccc(O)cc2)C(=O)N(C)[C@@H](C)C(=O)N[C@@H](CC(N)=O)C(=O)N2CCC[C@H]2C(=O)N[C@@H](CNC(=O)OCc2oc(=O)oc2C)C(=O)N[C@@H](CC(C)C)C(=O)N2C[C@H](O)C[C@H]2C(=O)N[C@@H](Cc2c[nH]c3ccccc23)C(=O)N[C@@H](CCNC(=O)OCC)C(=O)N[C@@H](Cc2cn(CC(=O)O)c3ccccc23)C(=O)N1C [Example 7010]
7.37 | CCCC[C@H]1C(=O)N(C)[C@@H](CCCC)C(=O)N[C@@H](CC(C)C)C(=O)N[C@H](C(=O)NCC(=O)N[C@@H](Cc2cn(CCOCCOCCOCCOCCOCCOCCOCCOCCOCCOCCOCCNC(=O)CC[C@H](NC(=O)CCCCCCCCCCCCCCCCC(=O)O)C(=O)O)nn2)C(=O)O)CSCC(=O)N[C@@H](Cc2ccc(O)cc2)C(=O)N(C)[C@@H](C)C(=O)N[C@@H](CC(N)=O)C(=O)N2CCC[C@H]2C(=O)N[C@@H](CNC(=O)OCc2oc(=O)oc2C)C(=O)N[C@@H](CC(C)C)C(=O)N2C[C@H](O)C[C@H]2C(=O)N[C@@H](Cc2c[nH]c3ccccc23)C(=O)N[C@@H](CCNC(=O)OC)C(=O)N[C@@H](Cc2cn(CC(=O)O)c3ccccc23)C(=O)N1C [Example 7006]
7.92 | CCCC[C@H]1C(=O)N(C)[C@@H](CCCC)C(=O)N[C@@H](CC(C)C)C(=O)N[C@H](C(=O)NCC(=O)N[C@@H](Cc2cn(CCOCCOCCOCCOCCOCCOCCOCCOCCOCCOCCOCCNC(=O)CC[C@H](NC(=O)CCCCCCCCCCCCCCCCC(=O)O)C(=O)O)nn2)C(=O)O)CSCC(=O)N[C@@H](Cc2ccc(O)cc2)C(=O)N(C)[C@@H](C)C(=O)N[C@@H](CC(N)=O)C(=O)N2CCC[C@H]2C(=O)N[C@@H](CNC(=O)OC)C(=O)N[C@@H](CC(C)C)C(=O)N2C[C@H](O)C[C@H]2C(=O)N[C@@H](Cc2c[nH]c3ccccc23)C(=O)N[C@@H](CCNC(=O)OCc2oc(=O)oc2C)C(=O)N[C@@H](Cc2cn(CC(=O)O)c3ccccc23)C(=O)N1C [Example 7005]
8.00 | CCCC[C@H]1C(=O)N(C)[C@@H](CCCC)C(=O)N[C@@H](CC(C)C)C(=O)N[C@H](C(=O)NCC(=O)N[C@@H](Cc2cn(CCOCCOCCOCCOCCOCCOCCOCCOCCOCCOCCOCCNC(=O)CC[C@H](NC(=O)CCCCCCCCCCCCCCCCC(=O)O)C(=O)O)nn2)C(=O)OC)CSCC(=O)N[C@@H](Cc2ccc(O)cc2)C(=O)N(C)[C@@H](C)C(=O)N[C@@H](CC(N)=O)C(=O)N2CCC[C@H]2C(=O)N[C@@H](CN)C(=O)N[C@@H](CC(C)C)C(=O)N2C[C@H](O)C[C@H]2C(=O)N[C@@H](Cc2c[nH]c3ccccc23)C(=O)N[C@@H](CCN)C(=O)N[C@@H](Cc2cn(CC(=O)OC)c3ccccc23)C(=O)N1C [Example 3001]
8.03 | CCCC[C@H]1C(=O)N(C)[C@@H](CCCC)C(=O)N[C@@H](CC(C)C)C(=O)N[C@H](C(=O)NCC(=O)N[C@@H](Cc2cn(CCOCCOCCOCCOCCOCCOCCOCCOCCOCCOCCOCCNC(=O)CC[C@H](NC(=O)CCCCCCCCCCCCCCCCC(=O)O)C(=O)OC)nn2)C(=O)O)CSCC(=O)N[C@@H](Cc2ccc(O)cc2)C(=O)N(C)[C@@H](C)C(=O)N[C@@H](CC(N)=O)C(=O)N2CCC[C@H]2C(=O)N[C@@H](CN)C(=O)N[C@@H](CC(C)C)C(=O)N2C[C@H](O)C[C@H]2C(=O)N[C@@H](Cc2c[nH]c3ccccc23)C(=O)N[C@@H](CCN)C(=O)N[C@@H](Cc2cn(CC(=O)OC)c3ccccc23)C(=O)N1C [Example 3003]
8.26 | CCCC[C@H]1C(=O)N(C)[C@@H](CCCC)C(=O)N[C@@H](CC(C)C)C(=O)N[C@H](C(=O)NCC(=O)N[C@@H](Cc2cn(CCOCCOCCOCCOCCOCCOCCOCCOCCOCCOCCOCCNC(=O)CC[C@H](NC(=O)CCCCCCCCCCCCCCCCC(=O)O)C(=O)O)nn2)C(=O)OC)CSCC(=O)N[C@@H](Cc2ccc(O)cc2)C(=O)N(C)[C@@H](C)C(=O)N[C@@H](CC(N)=O)C(=O)N2CCC[C@H]2C(=O)N[C@@H](CN)C(=O)N[C@@H](CC(C)C)C(=O)N2C[C@H](O)C[C@H]2C(=O)N[C@@H](Cc2c[nH]c3ccccc23)C(=O)N[C@@H](CCN)C(=O)N[C@@H](Cc2cn(CC(=O)O)c3ccccc23)C(=O)N1C [Example 6003]
